Here are results for 10 compounds from patent US10919937B2, “Bicyclic peptide ligands and uses thereof” (BicycleTx Limited, priority 2018, dated 2021).

Like-named read-outs stand apart in the source and are kept apart here. *1 amine or outer side, *2 acyl side, *3 side chain or, on linkers, in order; H or OH if unused. Where a SMILES comes first, the peptide text is derived from it. Bridges are numbered along the chain shown (N, C = ends). [ ]: non-standard residue; d: D form. X11 = O=C(C[*:1])N1CCN(c2ccc(-c3nc(-c4ccc(N5CCN(C(=O)C[*:2])CC5)cc4)nc(-c4ccc(N5CCN(C(=O)C[*:3])CC5)cc4)n3)cc2)CC1; X14 = CC(C)(C)[C@H](N[*:3])C(=O)C[C@@H](CSCc1ccc(-c2nc(-c3ccc(C[*:1])cc3)nc(-c3ccc(C[*:2])cc3)n2)cc1)C(N)=O; X10 = O=C(C[*:1])N1CCC(N2CCN(c3nc(N4CCN(C5CCN(C(=O)C[*:2])CC5)CC4)nc(N4CCN(C5CCN([*:3])CC5)CC4)n3)CC2)CC1; X12 = CC(C)(C)[C@H](N[*:3])C(=O)C[C@@H](CSCc1ccc(CN(Cc2ccc(C[*:1])cc2)Cc2ccc(C[*:2])cc2)cc1)C(N)=O; X6 = O=C(C[*:1])N1Cc2cccc(c2)CN(C(=O)C[*:2])Cc2cccc(c2)CN(C(=O)C[*:3])Cc2cccc(c2)C1; X3 = CC(C)(C)[C@H](N[*:1])C(=O)C[C@@H](CSCc1ccc(C(=O)[*:2])cc1)C(N)=O; X1 = c1cc(-c2nc(-c3ccc(C[*:2])cc3)nc(-c3ccc(C[*:3])cc3)n2)ccc1C[*:1]; X4 = O=C(c1ccc(C[*:1])cc1)N1CN(C(=O)c2ccc(C[*:2])cc2)CN([*:3])C1; X9 = CC(C)(C)[C@H](N[*:1])C(=O)C[C@@H](CSCC(=O)[*:2])C(N)=O; 1Nal = N[C@@H](Cc1cccc2ccccc12)C(=O)O; TBMB = c1c(C[*:1])cc(C[*:3])cc1C[*:2]; Tle = CC(C)(C)[C@H](N)C(=O)O

One assay addresses MT1-MMP hemopexin domain (Homo sapiens, UniProt P50281). Put plainly: MT1-MMP Direct Binding Fluorescence Polarization (Anisotropy) Assay. The following applies: MT1-MMP direct binding FP, n=2. The protocol: Direct Binding Fluorescence Polarization or Anisotropy Assays are performed by titrating a constant concentration of fluorescent tracer (here, the fluoresceinated bicyclic peptide to be studied) with its binding partner (here, the MT1-MMP hemopexin domain). As the concentration of binding partner increases during the titration, the polarization signal changes in proportion to the fraction of bound and unbound material. This allows determination of […] (Kd) quantitatively. Assay data can be fit using standard ligand binding equations.
Typically, concentrations of the tracer are ideally well below the Kd of the tracer:titrant pair, and concentrations chosen are usually at ˜1 nM or less. The titrant (binding partner) concentration is varied from 0.1 nM up to typically 5 μM. The range is chosen such that the maximum change in fluorescent polarization can be observed. Buffers employed are phosphate buffered saline in the presence of 0.01% Tween. Experiments were run in black 384 well low-bind/low volume plates (Corning 3820), and the fluorescent polarization signal was measured using a BMG Pherastar FS plate reader. Fluorescent tracers referred to in the text are bicyclic peptides that have been fluoresceinated using 5,6-carboxyfluorescein. Fluoresceination may be performed on the N-terminal amino group of the peptide, which is separated from the bicycle core sequence by a sarcosine spacer (usually Sar5). This can be done during Fmoc solid phase synthesis or post-synthetically (after cyclization with the molecular scaffold reagent and purification) if the N-terminal amino group is unique to the peptide. Fluoresceination can also be performed on the C-terminus, usually on a Lysine introduced as the first C-terminal residue, which is then separated from the bicycle core sequence by a sarcosine spacer (usually Sar6). Thus, N-terminal tracers can have a molecular format described as Fluo-Gly-Sar5-A(BicycleCoreSequence), and (BicycleCoreSequence)-A-Sar6-K(Fluo) for a C-terminally fluoresceinated construct.
A general note: Polarisation of emitted light reports the rotation of a fluorescent probe.

The next assay addresses CAIX (Homo sapiens, UniProt Q16790). Put plainly: CAIX Competition Binding Assay (competition fluorescence polarization). The protocol: CAIX Competition Binding Assay. Affinity of the peptides of the invention for human CAIX (Ki) is determined using a competition fluorescence polarization assay analogous to that described in Dubois et al. (2011) Radiotherapy and Oncology 99(3), 424-43 using A-(CAECWIDGWVPC)-A-Sar6-K(Fl), (SEQ ID NO: 11), as the fluorescent ligand.
Compounds described as “B” have a K, equal to or greater than 0.5 μM and less than 1 μM. Compounds described as “C” have a K, equal to or greater than 1 μM and less than 10 μM. Compounds described as “D” have a K, equal to or greater than 10 μM.

[1] abbreviates: human CAIX, competition FP, n = 2, read-out: Ki.

`C[C@H](N)C(=O)N[C@H]1CSCc2ccc(cc2)C(=O)N2CN3CN(C2)C(=O)c2ccc(cc2)CSC[C@H](NC(=O)[C@@H](C)NC(=O)[C@H](Cc2cccc4ccccc24)NC(=O)[C@H](CCC(=O)O)NC(=O)[C@H](CC(N)=O)NC(=O)[C@@H](C)NC1=O)C(=O)N[C@@H](CCC(=O)O)C(=O)N[C@@H](CC(=O)O)C(=O)N[C@@H](Cc1ccccc1)C(=O)N[C@@H](Cc1ccc(O)cc1)C(=O)N[C@@H](CC(=O)O)C(=O)N[C@@H](C(C)(C)C)C(=O)C[C@H](C(N)=O)CSCc1ccc(cc1)C3=O` [I-93] (H-AC[dA]NE[1Nal][dA]CEDFYD[X3]; linker 2-8-C via X4) had a Ki on MT1-MMP hemopexin domain of less than 500 nM.
As for `CC(=O)N[C@H]1CSCc2ccc(cc2)-c2nc3nc(n2)-c2ccc(cc2)CSC[C@H](NC(=O)[C@H](CCC(=O)O)NC(=O)[C@H]([C@@H](C)O)NC1=O)C(=O)N[C@@H](Cc1c[nH]c2ccccc12)C(=O)N[C@@H](C(C)C)C(=O)N[C@@H](CC(=O)O)C(=O)NCC(=O)N[C@@H](Cc1c[nH]c2ccccc12)C(=O)N[C@@H](C(C)C)C(=O)N1CCC[C@H]1C(=O)N[C@H](C(N)=O)CSCc1ccc-3cc1` [I-98] (Ac-CTECWVDGWVPC-NH2; linker 1-4-12 via X1), on CAIX (setting [1]), the Ki is less than 500 nM.
Compound `C[C@H](N)C(=O)N[C@H]1CSCc2ccc(cc2)-c2nc3nc(n2)-c2ccc(cc2)CSC[C@H](NC(=O)[C@@H](C)NC(=O)[C@H](Cc2cccc4ccccc24)NC(=O)[C@H](CCC(=O)O)NC(=O)[C@H](CC(N)=O)NC(=O)[C@@H](C)NC1=O)C(=O)N[C@@H](CCC(=O)O)C(=O)N[C@@H](CC(=O)O)C(=O)N[C@@H](Cc1ccccc1)C(=O)N[C@@H](Cc1ccc(O)cc1)C(=O)N[C@@H](CC(=O)O)C(=O)N[C@@H](C(C)(C)C)C(=O)C[C@H](C(N)=O)CSCc1ccc-3cc1` [I-90] (H-AC[dA]NE[1Nal][dA]CEDFYD; linker 2-8-C via X14) returned a Ki at MT1-MMP hemopexin domain of less than 500 nM.
Turning to `CC(=O)N[C@H]1CSCc2cc3cc(c2)CSC[C@@H](C(N)=O)NC(=O)[C@@H]2CCCN2C(=O)[C@H](C(C)C)NC(=O)[C@H](Cc2c[nH]c4ccccc24)NC(=O)CNC(=O)[C@H](CC(=O)O)NC(=O)[C@H](C(C)C)NC(=O)[C@H](Cc2c[nH]c4ccccc24)NC(=O)[C@H](Cc2ccc(cc2)OC3)NC(=O)[C@H](CCC(=O)O)NC(=O)[C@H]([C@@H](C)O)NC1=O` [I-108] (Ac-CTEYWVDGWVPC-NH2; linker 1-4-12 via TBMB), the Ki on CAIX is less than 500 nM.
At MT1-MMP hemopexin domain, `C[C@H](N)C(=O)N[C@H]1CSCc2ccc(cc2)CN2Cc3ccc(cc3)CSC[C@@H](C(N)=O)CC(=O)[C@H](C(C)(C)C)NC(=O)[C@H](CC(=O)O)NC(=O)[C@H](Cc3ccc(O)cc3)NC(=O)[C@H](Cc3ccccc3)NC(=O)[C@H](CC(=O)O)NC(=O)[C@H](CCC(=O)O)NC(=O)[C@H](CSCc3ccc(cc3)C2)NC(=O)[C@@H](C)NC(=O)[C@H](Cc2cccc3ccccc23)NC(=O)[C@H](CCC(=O)O)NC(=O)[C@H](CC(N)=O)NC(=O)[C@@H](C)NC1=O` [I-96] (H-AC[dA]NE[1Nal][dA]CEDFYD; linker 2-8-C via X12) registered a Ki of less than 500 nM.
As to `CC(C)[C@@H]1NC(=O)[C@H](Cc2c[nH]c3ccccc23)NC(=O)[C@@H]2CSCC(=O)N3Cc4cccc(c4)CN(Cc4cccc(c4)CN(Cc4cccc(c4)C3)C(=O)CSC[C@H](NC(=O)[C@H](C)NC(=O)CN(C)C(=O)CN(C)C(=O)CN(C)C(=O)CN(C)C(=O)CN(C)C(=O)CN(C)C(=O)CN(C)C(=O)CN(C)C(=O)CN(C)C(=O)CN(C)C(=O)CCN)C(=O)N[C@@H]([C@@H](C)O)C(=O)N[C@@H](CCC(=O)O)C(=O)N2)C(=O)CSC[C@@H](C(N)=O)NC(=O)[C@@H]2CCCN2C(=O)[C@H](C(C)C)NC(=O)[C@H](Cc2c[nH]c3ccccc23)NC(=O)CNC(=O)[C@H](CC(=O)O)NC1=O` [I-23], the Ki at CAIX (setting [1]) was greater than 10000 nM.
Take `CC(=O)N[C@H]1Cc2ccc(cc2)OCc2cc3cc(c2)CSC[C@H](NC(=O)[C@H](CCC(=O)O)NC(=O)[C@H]([C@@H](C)O)NC1=O)C(=O)N[C@@H](Cc1c[nH]c2ccccc12)C(=O)N[C@@H](C(C)C)C(=O)N[C@@H](CC(=O)O)C(=O)NCC(=O)N[C@@H](Cc1c[nH]c2ccccc12)C(=O)N[C@@H](C(C)C)C(=O)N1CCC[C@H]1C(=O)N[C@H](C(N)=O)Cc1ccc(cc1)OC3` [I-109] (Ac-YTECWVDGWVPY-NH2; linker 1-4-12 via TBMB): the Ki at CAIX (setting [1]) fell in the range of 500 to 1000 nM.
Consider `C[C@H](N)C(=O)N[C@H]1CSCC(=O)N2CCC(CC2)N2CCN(CC2)c2nc3nc(n2)N2CCN(CC2)C2CCN(CC2)C(=O)CSC[C@H](NC(=O)[C@@H](C)NC(=O)[C@H](Cc2cccc4ccccc24)NC(=O)[C@H](CCC(=O)O)NC(=O)[C@H](CC(N)=O)NC(=O)[C@@H](C)NC1=O)C(=O)N[C@@H](CCC(=O)O)C(=O)N[C@@H](CC(=O)O)C(=O)N[C@@H](Cc1ccccc1)C(=O)N[C@@H](Cc1ccc(O)cc1)C(=O)N[C@@H](CC(=O)O)C(=O)N[C@@H](C(C)(C)C)C(=O)C[C@H](C(N)=O)CSCC(=O)N1CCC(CC1)N1CCN3CC1` [I-91] (H-AC[dA]NE[1Nal][dA]CEDFYD[X9]; linker 2-8-C via X10), for which the Ki at MT1-MMP hemopexin domain was less than 500 nM.
Same read-out and setting: as for `C[C@H](N)C(=O)N[C@H]1CSCC(=O)N2Cc3cccc(c3)CN3Cc4cccc(c4)CN(Cc4cccc(c4)C2)C(=O)CSC[C@H](NC(=O)[C@@H](C)NC(=O)[C@H](Cc2cccc4ccccc24)NC(=O)[C@H](CCC(=O)O)NC(=O)[C@H](CC(N)=O)NC(=O)[C@@H](C)NC1=O)C(=O)N[C@@H](CCC(=O)O)C(=O)N[C@@H](CC(=O)O)C(=O)N[C@@H](Cc1ccccc1)C(=O)N[C@@H](Cc1ccc(O)cc1)C(=O)N[C@@H](CC(=O)O)C(=O)N[C@@H](C(C)(C)C)C(=O)N[C@H](C(N)=O)CSCC3=O` [I-44] (H-AC[dA]NE[1Nal][dA]CEDFYD[Tle]C-NH2; linker 2-8-15 via X6), the figure is no less than 10000 nM; as for `C[C@H](N)C(=O)N[C@H]1CSCC(=O)N2CCN(CC2)c2ccc(cc2)-c2nc3nc(n2)-c2ccc(cc2)N2CCN(CC2)C(=O)CSC[C@H](NC(=O)[C@@H](C)NC(=O)[C@H](Cc2cccc4ccccc24)NC(=O)[C@H](CCC(=O)O)NC(=O)[C@H](CC(N)=O)NC(=O)[C@@H](C)NC1=O)C(=O)N[C@@H](CCC(=O)O)C(=O)N[C@@H](CC(=O)O)C(=O)N[C@@H](Cc1ccccc1)C(=O)N[C@@H](Cc1ccc(O)cc1)C(=O)N[C@@H](CC(=O)O)C(=O)N[C@@H](C(C)(C)C)C(=O)N[C@H](C(N)=O)CSCC(=O)N1CCN(CC1)c1ccc-3cc1` [I-94] (H-AC[dA]NE[1Nal][dA]CEDFYD[Tle]C-NH2; linker 2-8-15 via X11), less than 500 nM.

The term Ki denotes a measure of affinity in units of concentration, obtained from inhibition or displacement.
